Structures can show the parent of a compound that is named as a salt.
Assays:
Southern Armyworm = assay: Southern armyworm test, third-instar larvae on treated Sieva lima bean leaves; format: in vivo, Spodoptera eridania (Cramer); conditions: third-instar larvae
Method: (§1) Test formulations and procedures used for evaluation are as follows:
(§2) A. 100 mg of the test material is weighed, placed in a funnel over a 113 g narrow-mouth bottle, rinsed into the bottle with a 35 mL scoop of acetone, followed by a 35 mL scoop of water and another 35 mL scoop of acetone to yield 1000 ppm in 65% acetone. If the material is not soluble, it is broken up with a glass rod and used as a suspension.
(§3) B. This stock solution ("A") is used to make 300 ppm solutions or suspensions by pipetting 30 mL of "A" into a bottle containing 70 mL of 50% acetone to yield 300 ppm. Further dilutions in 50% acetone are made as required.
(§4) C. Tests requiring 10 ppm acetone solutions: 1 mL of "A" is pipetted into 99 mL of acetone to yield 10 ppm. Additional dilutions are made using 50% acetone as required.
Southern Armyworm--Spodoptera eridania (Cramer)
A Sieva lima bean plant with just the primary leaves expanded to 1.91 cm is dipped for three seconds with agitation in the "A" solution of 1000 ppm and set in the hood to dry. Following this, one leaf is placed in a 9 cm petri dish which has a moist filter paper in the bottom and 10 third-instar armyworm larvae about 1 cm long. This dish is covered and held at 80° F., and 50% r.h. After two days, mortality counts and estimates of the amount of feeding are made. Compounds showing partial kill and/or inhibition of feeding are held for an extra day for further observations.
All compounds showing activity as defined above are retested, using the second leaf on the bean plant, after an interval of seven days from original treatment, as an assay of residual activity.

[1] = tested on: Tobacco Budworm 1st Instar; assay: Tobacco budworm initial test, treated eggs / newly hatched (1st instar) larvae on treated cotton leaves; format: in vivo, Heliothis virescens (Fabricus)
Method: as §1, §2, §3, §4
Tobacco Budworm--Heliothis virescens (Fabricus)
A cotton plant with two true leaves expanded is dipped for three seconds with agitation in 300 ppm solution. A 1.27 to 1.91 cm square of cheesecloth with about 50 to 100 budworm eggs 0-24 hours old is also dipped in the test solution and placed on a leaf of the cotton plant, all being placed in the hood to dry. The leaf with the treated budworm eggs is removed from the plant and placed in a 226 g Dixie cup with a wet 5 cm piece of dental wick and covered with a lid. The other leaf is placed in a similar cup with a wick and a piece of cheesecloth infested with 50-100 newly hatched larvae is added before covering the cup with a lid. After three days at 80° F., 50% relative humidity, observations of egg hatch are made, as well as kill of newly hatched larvae, any inhibition of feeding, or interference of any sort with normal development.

[2] = tested on: Tobacco Budworm 3rd Instar; assay: Tobacco budworm secondary test, third-instar larvae on treated cotton cotyledons; format: in vivo, Heliothis virescens (Fabricus)
Method: Three cotton plants with just expanded cotyledons are dipped in 1000 ppm solution and placed in the hood to dry. When dry, each cotyledon is cut in half, and 10 are each placed in a 28 g plastic medicine cup containing a 1.25 cm dental wick saturated with water, and one third-instar budworm larva is added. The cup is capped and held for three days at 80° F., 50% relative humidity, after which mortality counts are made.

SMILES	Mortality Rating Southern Armyworm (Southern Armyworm; 10 ppm)	Mortality Rating Southern Armyworm (Southern Armyworm; 100 ppm)	Mortality Rating Southern Armyworm (Southern Armyworm; 1000 ppm)	Mortality Rating Tobacco Budworm 1st Instar ([1]; 300 ppm)	Mortality Rating Tobacco Budworm 3rd Instar ([2]; 100 ppm)	Mortality Rating Tobacco Budworm 3rd Instar ([2]; 1000 ppm)	Mortality Rating Tobacco Budworm 1st Instar ([1]; 100 ppm)	Mortality Rating Tobacco Budworm 1st Instar ([1]; 10 ppm)	reduced feeding (R) Tobacco Budworm 1st Instar ([1]; 100 ppm)	Mortality Rating Tobacco Budworm 3rd Instar ([2]; 10 ppm)	reduced feeding (R) Tobacco Budworm 3rd Instar ([2]; 100 ppm)	reduced feeding (R) Tobacco Budworm 3rd Instar ([2]; 1000 ppm)	reduced feeding (R) Tobacco Budworm 3rd Instar ([2]; 10 ppm)
CN(C)C(=O)N(N=Cc1ccc(Br)cc1)C(=N)NN=Cc1ccc(Br)cc1 [Br / Br / CH3 / CH3]	0 (No effect)	9 (100%)	9 (100%)	0 (No effect)	0 (No effect)	2 (26-35%)	–	–	–	–	–	–	–
N=C(NN=Cc1ccc(Br)cc1)NN=Cc1ccc(Br)cc1 [Br / HNO3]	–	5 (56-65%)	9 (100%)	0 (No effect)	–	–	–	–	–	–	–	–	–
N=C(NN=Cc1ccc(C(F)(F)F)cc1)NN=Cc1ccc(C(F)(F)F)cc1 [CF3 / B, 1,3-bis{[p-(trifluoromethyl)benzylidene]amino}guanidine]	0 (No effect)	9 (100%)	9 (100%)	6 (66-75%)	0 (No effect)	8 (86-99%)	0 (No effect)	–	–	–	–	–	–
N=C(NN=Cc1ccc(Br)cc1)NN=Cc1ccc(C(F)(F)F)cc1 [CF3 / Br / HCl]	–	–	9 (100%)	9 (100%)	0 (No effect)	0 (No effect)	0 (No effect)	0 (No effect)	R	0 (No effect)	R	R	–
CC(C)OC(=O)N(N=Cc1ccc(C(F)(F)F)cc1)C(=N)NN=Cc1ccc(C(F)(F)F)cc1 [CF3 / CF3 / -i-C3 H7]	9 (100%)	9 (100%)	9 (100%)	0 (No effect)	0 (No effect)	3 (36-45%)	–	–	–	–	R	R	–
CC(C)COC(=O)N(N=Cc1ccc(C(F)(F)F)cc1)C(=N)NN=Cc1ccc(C(F)(F)F)cc1 [CF3 / CF3 / -i-C4 H9]	–	0 (No effect)	9 (100%)	0 (No effect)	–	0 (No effect)	–	–	–	–	–	–	–
N=C(NN=Cc1ccc(OC(F)(F)F)cc1)NN=Cc1ccc(OC(F)(F)F)cc1 [CF3 O / HCl]	0 (No effect)	9 (100%)	9 (100%)	9 (100%)	–	–	–	–	–	–	–	–	–
N=C(NN=Cc1ccc(SC(F)F)cc1)N(N=Cc1ccc(SC(F)F)cc1)C(=O)OCCCl [HCF2 S / HCF2 S / ClCH2 CH2]	–	0 (No effect)	9 (100%)	–	–	0 (No effect)	–	–	–	–	–	R	–
CCOC(=O)N(N=Cc1ccc(SC(F)F)cc1)C(=N)NN=Cc1ccc(SC(F)F)cc1 [HCF2 S / HCF2 s / C2 H5]	–	0 (No effect)	9 (100%)	–	–	0 (No effect)	–	–	–	–	–	R	–
N=C(NN=Cc1ccc(SC(F)F)cc1)NN=Cc1ccc(SC(F)F)cc1 [HCF2 S / S]	–	9 (100%)	9 (100%)	–	–	0 (No effect)	–	–	–	–	–	R	–
N=C(NN=Cc1ccc(OC(F)(F)C(F)Cl)cc1)NN=Cc1ccc(OC(F)(F)C(F)Cl)cc1 (stereo not drawn) [drawing 43 / B]	–	9 (100%)	9 (100%)	–	0 (No effect)	9 (100%)	–	–	–	0 (No effect)	–	–	–
N=C(NN=Cc1ccc(OC(F)(F)C(F)Cl)cc1)NN=Cc1ccc(OC(F)(F)C(F)Cl)cc1 (stereo not drawn) [drawing 44 / S]	6 (66-75%)	9 (100%)	9 (100%)	–	0 (No effect)	9 (100%)	–	–	–	0 (No effect)	R	R	R
CC1(C)Oc2ccc(C=NNC(=N)NN=Cc3ccc4c(c3)OC(C)(C)O4)cc2O1 [drawing 45 / S]	6 (66-75%)	–	9 (100%)	–	0 (No effect)	0 (No effect)	–	–	–	–	–	R	–
N=C(NN=Cc1ccc2c(c1)OC(F)(F)O2)NN=Cc1ccc2c(c1)OC(F)(F)O2 [drawing 46 / S]	4 (46-55%)	0 (No effect)	9 (100%)	–	0 (No effect)	0 (No effect)	–	–	–	–	R	R	–
N=C(NN=Cc1ccc2c(c1)OC(F)C(F)(F)O2)NN=Cc1ccc2c(c1)OC(F)C(F)(F)O2 (stereo not drawn) [drawing 47 / B]	0 (No effect)	–	9 (100%)	–	0 (No effect)	0 (No effect)	–	–	–	–	R	R	–
N=C(NN=Cc1ccc2c(c1)OC(F)C(F)(F)O2)NN=Cc1ccc2c(c1)OC(F)C(F)(F)O2 (stereo not drawn) [drawing 48 / S]	–	0 (No effect)	9 (100%)	–	–	0 (No effect)	–	–	–	–	–	R	–
CC(C)OC(=O)N(N=Cc1ccc(OC(F)(F)C(F)Cl)cc1)C(=N)NN=Cc1ccc(OC(F)(F)C(F)Cl)cc1 (stereo not drawn) [drawing 50 / drawing 51 / -i-C3 H7]	0 (No effect)	9 (100%)	9 (100%)	–	–	0 (No effect)	–	–	–	–	–	R	–
CC(C)OC(=O)N(N=Cc1ccc2c(c1)OC(F)C(F)(F)O2)C(=N)NN=Cc1ccc2c(c1)OC(F)C(F)(F)O2 (stereo not drawn) [drawing 52 / drawing 53 / -i-C3 H7]	0 (No effect)	5 (56-65%)	8 (86-99%)	–	0 (No effect)	0 (No effect)	–	–	–	–	–	R	–
N=C(NN=Cc1ccc(OC(F)(F)C(F)Cl)cc1)N(N=Cc1ccc(OC(F)(F)C(F)Cl)cc1)C(=O)OCCCl (stereo not drawn) [drawing 57 / drawing 58 / ClCH2 CH2]	–	9 (100%)	9 (100%)	–	–	0 (No effect)	–	–	–	–	–	R	–
